Measured values taken from patent publication US9067871B2, “Aminotetraline derivatives, pharmaceutical compositions containing them, and their use in therapy” (ABBVIE DEUTSCHLAND GMBH & CO KG, priority 2009, dated 2015).
Where a name gives a salt, the structure may show the parent alone. Read-outs that look alike come from different tables or passages of the source.

Target: human GlyT1c transporter (Homo sapiens (Human), UniProt P48067)
Assay: Radioligand binding assay using recombinant CHO cell membranes expressing human GlyT1
Details: human GlyT1c-expressing CHO cell membranes, read-out: radioligand binding Kiapp
From the text: 2. Radioligand binding assays using recombinant CHO cell membranes expressing human GlyT1: […]

Sequence of human GlyT1c transporter (P48067 whole entry): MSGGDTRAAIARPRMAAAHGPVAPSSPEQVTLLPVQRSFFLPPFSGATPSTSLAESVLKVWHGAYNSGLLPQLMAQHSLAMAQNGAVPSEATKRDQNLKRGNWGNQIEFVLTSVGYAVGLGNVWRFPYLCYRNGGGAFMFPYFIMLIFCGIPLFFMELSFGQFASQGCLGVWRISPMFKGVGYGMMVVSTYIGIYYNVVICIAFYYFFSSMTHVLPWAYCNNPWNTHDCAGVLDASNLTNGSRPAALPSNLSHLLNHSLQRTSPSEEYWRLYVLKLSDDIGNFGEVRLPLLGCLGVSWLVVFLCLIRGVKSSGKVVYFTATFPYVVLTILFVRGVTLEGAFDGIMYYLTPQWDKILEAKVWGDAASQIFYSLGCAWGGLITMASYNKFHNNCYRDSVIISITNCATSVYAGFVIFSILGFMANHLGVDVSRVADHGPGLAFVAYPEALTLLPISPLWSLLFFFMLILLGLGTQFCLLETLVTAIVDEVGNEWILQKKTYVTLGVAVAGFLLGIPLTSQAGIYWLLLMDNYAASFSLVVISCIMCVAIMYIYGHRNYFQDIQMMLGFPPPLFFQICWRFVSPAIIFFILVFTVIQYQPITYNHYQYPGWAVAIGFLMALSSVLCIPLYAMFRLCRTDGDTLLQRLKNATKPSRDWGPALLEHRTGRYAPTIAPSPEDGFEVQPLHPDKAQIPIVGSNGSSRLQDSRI

SMILES	Ki [nM]	Ki (hydrochloride) [nM]
CC(C)S(=O)(=O)NCCOc1ccc2c(c1)C(Cc1ccc(Cl)c(Cl)c1)C(N)CC2 (centres unmarked) [Example 91, Propane-2-sulfonic acid {2-[7-amino-8-(3,4-dichloro-benzyl)-5,6,7,8-tetrahydronaphthalen-2-yloxy]-ethyl}-amide hydrochloride]	≤ 100	–
Cn1cnc(S(=O)(=O)NCCOc2ccc3c(c2)C(Cc2ccc(Cl)c(Cl)c2)C(N)CC3)n1 (centres unmarked) [Example 104, 1-Methyl-1H-[1,2,4]triazole-3-sulfonic acid {2-[7-amino-8-(3,4-dichloro-benzyl)-5,6,7,8-tetrahydro-naphthalen-2-yloxy]-ethyl}-amide]	≤ 1000	–
CN(CCOc1ccc2c(c1)C(Cc1ccc(Cl)c(Cl)c1)C(N1CCCC1)CC2)S(=O)(=O)C1CCC1 (centres unmarked) [Example 94, Cyclobutanesulfonic acid {2-[8-(3,4-dichloro-benzyl)-7-pyrrolidin-1-yl-5,6,7,8-tetrahydronaphthalen-2-yloxy]-ethyl}-methyl-amide hydrochloride]	≤ 100	–
NC1CCc2ccc(OCCNS(=O)(=O)CC3CC3)cc2C1Cc1ccc(Cl)cc1 (centres unmarked) [Example 128, N-(2-{[7-Amino-8-(4-chlorobenzyl)-5,6,7,8-tetrahydronaphthalen-2-yl]oxy}ethyl)-1-cyclopropylmethanesulfonamide hydrochloride]	≤ 100	–
CCCS(=O)(=O)N1CC(COc2ccc3c(c2)C(Cc2cccc(Cl)c2)C(N)CC3)C1 (centres unmarked) [Example 286, 1-(3-Chloro-benzyl)-7-[1-(propane-1-sulfonyl)-azetidin-3-ylmethoxy]-1,2,3,4-tetrahydronaphthalen-2-ylamine hydrochloride]	≤ 10000	–
NC1CCc2ccc(CCCNS(=O)(=O)CC3CC3)cc2C1Cc1cccc(Cl)c1 (centres unmarked) [Example 296, N-{3-[7-Amino-8-(3-chloro-benzyl)-5,6,7,8-tetrahydro-naphthalen-2-yl]-propyl}-C-cyclopropyl-methanesulfonamide hydrochloride]	≤ 100	–
CNC1CCc2ccc(OCCNS(=O)(=O)CC3CC3)cc2C1Cc1cccc(F)c1 (single isomer, unassigned; enantiomer 1) [Example 240, Enantiomer 1 of 1-cyclopropyl-N-(2-{[8-(3-fluorobenzyl)-7-(methylamino)-5,6,7,8-tetrahydronaphthalen-2-yl]oxy}ethyl)methanesulfonamide hydrochloride]	≤ 10	–
CN(CCOc1ccc2c(c1)C(Cc1ccccc1)C(N)CC2)S(=O)(=O)c1cn(C)cn1 (centres unmarked) [Example 98, 1-Methyl-1H-imidazole-4-sulfonic acid [2-(7-amino-8-benzyl-5,6,7,8-tetrahydronaphthalen-2-yloxy)-ethyl]-methyl-amide hydrochloride]	≤ 1000	–
O=S(=O)(CC1CC1)NCCOc1ccc2c(c1)C(Cc1cccc(Cl)c1)C(N1CCCC1)CC2 (centres unmarked) [Example 317, N-{2-[8-(3-Chloro-benzyl)-7-pyrrolidin-1-yl-5,6,7,8-tetrahydro-naphthalen-2-yloxy]-ethyl}-C-cyclopropyl-methanesulfonamide hydrochloride]	≤ 100	–
Cn1ccc(S(=O)(=O)NCCOc2ccc3c(c2)C(Cc2cc(F)cc(F)c2)C(NC=O)CC3)c1 (centres unmarked) [Example 271, N-(2-{[8-(3,5-Difluorobenzyl)-7-(formylamino)-5,6,7,8-tetrahydronaphthalen-2-yl]oxy}ethyl)-1-methyl-1H-pyrrole-3-sulfonamide]	≤ 100	–
CN(CCCc1ccc2c(c1)C(Cc1ccccc1Cl)C(N)CC2)S(=O)(=O)CC1CC1 (centres unmarked) [Example 228, N-{3-[7-Amino-8-(2-chloro-benzyl)-5,6,7,8-tetrahydro-naphthalen-2-yl]-propyl}-C-cyclopropyl-N-methyl-methanesulfonamide hydrochloride]	≤ 100	–
Cn1cc(S(=O)(=O)NCc2ccc3c(c2)C(Cc2ccccc2)C(N2CCC2)CC3)cn1 (centres unmarked) [Example 250, N-{[7-(Azetidin-1-yl)-8-benzyl-5,6,7,8-tetrahydronaphthalen-2-yl]methyl}-1-methyl-1H-pyrazole-4-sulfonamide]	≤ 10	–

Other lines, results leading:

Ki [nM]	Ki (hydrochloride) [nM]	SMILES
≤ 10000	–	CC(=O)NC1CCc2ccc(CNS(=O)(=O)c3cn(C)cn3)cc2C1Cc1ccc(F)cc1 (centres unmarked) [Example 197]
–	≤ 1000	NC1CCc2ccc(OCCNS(=O)(=O)CCC(F)(F)F)cc2C1Cc1ccccc1 (centres unmarked) [Example 100, 3,3,3-Trifluoro-propane-1-sulfonic acid [2-(7-amino-8-benzyl-5,6,7,8-tetrahydronaphthalen-2-yloxy)-ethyl]amide hydrochloride]
≤ 100	–	NC1CCc2ccc(CNS(=O)(=O)c3cccnc3)cc2C1Cc1ccccc1 (centres unmarked) [Example 181, N-{[7-Amino-8-benzyl-5,6,7,8-tetrahydronaphthalen-2-yl]methyl}pyridine-3-sulfonamide dihydrochloride]
≤ 10	–	CN(CCOc1ccc2c(c1)C(Cc1cccc(Cl)c1)C(N)CC2)S(=O)(=O)CC1CC1 (centres unmarked) [Example 291, N-{2-[7-Amino-8-(3-chloro-benzyl)-5,6,7,8-tetrahydro-naphthalen-2-yloxy]-ethyl}-C-cyclopropyl-N-methyl-methanesulfonamide]
≤ 1000	–	NC1CCc2ccc(OCCNS(=O)(=O)CC3CCC3)cc2C1Cc1ccc(Cl)c(Cl)c1 (centres unmarked) [Example 106, N-{2-[7-Amino-8-(3,4-dichloro-benzyl)-5,6,7,8-tetrahydro-naphthalen-2-yloxy]-ethyl}-Ccyclobutyl-methanesulfonamide hydrochloride]
≤ 100	–	Cn1ccc(S(=O)(=O)NCc2ccc3c(c2)C(Cc2ccccc2)C(N2CCC2)CC3)c1 (centres unmarked) [Example 251, N-{[7-(Azetidin-1-yl)-8-benzyl-5,6,7,8-tetrahydronaphthalen-2-yl]methyl}-1-methyl-1H-pyrrole-3-sulfonamide trifluoroacetate]
≤ 10	–	Cn1cnc(S(=O)(=O)NCCOc2ccc3c(c2)C(Cc2cccc(Cl)c2)C(N2CCC2)CC3)c1 (centres unmarked) [Example 321, 1-Methyl-1H-imidazole-4-sulfonic acid {2-[7-azetidin-1-yl-8-(3-chloro-benzyl)-5,6,7,8-tetrahydro-naphthalen-2-yloxy]-ethyl}-amide hydrochloride]
≤ 1000	–	NC1CCc2ccc(CNS(=O)(=O)C3CCC3)cc2C1Cc1ccc(F)cc1 (centres unmarked) [Example 174, N-{[7-Amino-8-(4-fluorobenzyl)-5,6,7,8-tetrahydronaphthalen-2-yl]methyl}cyclobutanesulfonamide hydrochloride]
≤ 1000	–	CCCS(=O)(=O)N1CC(COc2ccc3c(c2)C(Cc2ccccc2)C(N)CC3)C1 (centres unmarked) [Example 292, 1-Benzyl-7-[1-(propane-1-sulfonyl)-azetidin-3-ylmethoxy]-1,2,3,4-tetrahydro-naphthalen-2-ylamine hydrochloride]
≤ 1000	–	CCCS(=O)(=O)NCCCc1ccc2c(c1)C(Cc1ccccc1Cl)C(NCC)CC2 (centres unmarked) [Example 222, Propane-1-sulfonic acid {3-[8-(2-chloro-benzyl)-7-ethylamino-5,6,7,8-tetrahydronaphthalen-2-yl]-propyl}-amide hydrochloride]
≤ 10	–	Cn1cc(S(=O)(=O)NCCOc2ccc3c(c2)C(Cc2cccc(Cl)c2)C(N2CCC2)CC3)cn1 (centres unmarked) [Example 322, 1-Methyl-1H-pyrazole-4-sulfonic acid {2-[7-azetidin-1-yl-8-(3-chloro-benzyl)-5,6,7,8-tetrahydro-naphthalen-2-yloxy]-ethyl}-amide hydrochloride]
